Measured values as given in PubChem BioAssay AID220 (DTP/NCI, 2004).
“And” between values parts separate entries of the source, which are not always exact repeats. Equal entries are not always repeated. Inconclusive results are not listed.

Test system: CD8F1 mice, subcutaneous mammary adenocarcinoma, T/C%
Assay: NCI In Vivo Anticancer Drug Screen. Data for tumor model Mammary Adenocarcinoma CD8F1 (subcutaneous) in CD8F1
Settings: higher = larger tumour
Procedure, shortened: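 Tumor-bearing mice, transplantable model; readout survival or tumor size; value = treated (T) / vehicle control (C).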

[1] = endpoint: median tumor weight (est.), dose: 12.5 mg/kg/injection, schedule: Q07DX005 (ip), vehicle: saline
[2] = endpoint: median tumor weight (est.), dose: 25.0 mg/kg/injection, schedule: Q07DX005 (ip), vehicle: saline
[3] = endpoint: median tumor weight (est.), dose: 50.0 mg/kg/injection, schedule: Q07DX005 (ip), vehicle: saline
[4] = endpoint: median tumor weight (est.), dose: 100.0 mg/kg/injection, schedule: Q07DX005 (ip), vehicle: saline
[5] = endpoint: median tumor weight (est.), dose: 25.0 mg/kg/injection, schedule: Q07DX005 (ip), vehicle: saline with Tween-80
[6] = endpoint: median tumor weight (est.), dose: 50.0 mg/kg/injection, schedule: Q07DX005 (ip), vehicle: saline with Tween-80
[7] = endpoint: median tumor weight (est.), dose: 200.0 mg/kg/injection, schedule: Q07DX005 (ip), vehicle: saline with Tween-80
[8] = endpoint: median tumor weight (est.), dose: 12.5 mg/kg/injection, schedule: Q07DX005 (ip), vehicle: saline with Tween-80
[9] = endpoint: median tumor weight (est.), dose: 100.0 mg/kg/injection, schedule: Q07DX005 (ip), vehicle: saline with Tween-80

For `C[CH2][Pb]([CH2]C)([CH2]C)[O]C(=O)COc1ccccc1`, the T/C (endpoint: mean tumor weight, dose: 0.75 mg/kg/injection, schedule: Q01DX009 (ip), vehicle: saline) was 112 % of control, the T/C (endpoint: mean tumor weight, dose: 0.75 mg/kg/injection, schedule: Q07DX009 (ip), vehicle: saline) was 398 % of control and the T/C (endpoint: mean tumor weight, dose: 1.5 mg/kg/injection, schedule: Q01DX009 (ip), vehicle: saline) was 57 % of control. The T/C (endpoint: mean tumor weight, dose: 1.5 mg/kg/injection, schedule: Q07DX009 (ip), vehicle: saline) was 192 % of control, the T/C (endpoint: mean tumor weight, dose: 3.0 mg/kg/injection, schedule: Q01DX009 (ip), vehicle: saline) was 73 % of control and the T/C (endpoint: mean tumor weight, dose: 3.0 mg/kg/injection, schedule: Q07DX009 (ip), vehicle: saline) was 172 % of control. The T/C (endpoint: mean tumor weight, dose: 6.0 mg/kg/injection, schedule: Q07DX009 (ip), vehicle: saline) was 165 % of control.
For `CCN(CC)c1ccc2[nH]c3c(C(N)=O)cc(=O)c(=O)c=3oc2c1`, the T/C (endpoint: median tumor weight change, dose: 62.5 mg/kg/injection, schedule: Q01DX001 (ip), vehicle: saline with Tween-80) was 92 % of control, the T/C (endpoint: median tumor weight change, dose: 250.0 mg/kg/injection, schedule: Q01DX001 (ip), vehicle: saline with Tween-80) was 121 % of control and the T/C (endpoint: median tumor weight change, dose: 500.0 mg/kg/injection, schedule: Q01DX001 (ip), vehicle: saline with Tween-80) was 28 % of control.
For `c1cc2n(n1)CCN2`, the T/C [1] was 76 % of control, the T/C [2] was 94 % of control and the T/C [3] was 102 % of control. The T/C [4] was 85 % of control, the T/C (endpoint: median tumor weight (est.), dose: 200.0 mg/kg/injection, schedule: Q07DX005 (ip), vehicle: saline) was 54 % of control and the T/C (endpoint: median tumor weight (est.), dose: 400.0 mg/kg/injection, schedule: Q07DX005 (ip), vehicle: saline) was 46 % of control.
In the case of `COC1N(C2CC(O)C(CO)O2)C(=O)NC(=O)C1(F)Br` (stereo not given), the T/C (endpoint: median tumor weight (est.), dose: 3.12 mg/kg/injection, schedule: Q07DX005 (ip), vehicle: saline) is reported as 74 % of control, the T/C (endpoint: median tumor weight (est.), dose: 6.25 mg/kg/injection, schedule: Q07DX005 (ip), vehicle: saline) is reported as 54 % of control and the T/C (endpoint: median tumor weight (est.), dose: 6.25 mg/kg/injection, schedule: Q07DX005 (ip), vehicle: suspension in saline) is reported as 67 % of control. For the same molecule, the T/C [1] was 28 % of control, the T/C (endpoint: median tumor weight (est.), dose: 12.5 mg/kg/injection, schedule: Q07DX005 (ip), vehicle: suspension in saline) was 113 % of control and the T/C [2] was 46 % of control. The T/C (endpoint: median tumor weight (est.), dose: 25.0 mg/kg/injection, schedule: Q07DX005 (ip), vehicle: suspension in saline) was 66 % of control, the T/C [3] was 28 % of control and the T/C (endpoint: median tumor weight (est.), dose: 50.0 mg/kg/injection, schedule: Q07DX005 (ip), vehicle: suspension in saline) was 45 % of control. For the same molecule, the T/C [4] was 5 % of control, the T/C (endpoint: median tumor weight (est.), dose: 100.0 mg/kg/injection, schedule: Q07DX005 (ip), vehicle: suspension in saline) was 45 % of control and the T/C (endpoint: median tumor weight (est.), dose: 200.0 mg/kg/injection, schedule: Q07DX005 (ip), vehicle: suspension in saline) was 57 % of control.
With `COc1cc2c(c(OC)c1OC)-c1ccc(OC)c(=O)cc1[C@@H](NC(C)=O)CC2` the T/C (endpoint: median tumor weight (est.), dose: 0.75 mg/kg/injection, schedule: Q07DX005 (ip), vehicle: saline) was 82 % of control and 97 % of control, the T/C (endpoint: median tumor weight (est.), dose: 1.5 mg/kg/injection, schedule: Q07DX005 (ip), vehicle: saline) was 49 % of control and the T/C (endpoint: median tumor weight change, dose: 3.0 mg/kg/injection, schedule: Q01DX001 (ip), vehicle: suspension in saline) was 21 % of control. The T/C (endpoint: median tumor weight change, dose: 6.25 mg/kg/injection, schedule: Q01DX001 (ip), vehicle: saline) was -47 % of control.
With `Cc1ccc(C(=O)[O][Hg][CH2]C2COC([CH2][Hg][O]C(=O)c3ccc(C)cc3)CO2)cc1` (stereo not given) the T/C (endpoint: median tumor weight (est.), dose: 6.25 mg/kg/injection, schedule: Q07DX005 (ip), vehicle: Klucel (hydroxypropylcellulose) (HPC)) was 60 % of control, the T/C (endpoint: median tumor weight (est.), dose: 12.5 mg/kg/injection, schedule: Q07DX005 (ip), vehicle: Klucel (hydroxypropylcellulose) (HPC)) was 72 % of control and the T/C (endpoint: median tumor weight (est.), dose: 25.0 mg/kg/injection, schedule: Q07DX005 (ip), vehicle: Klucel (hydroxypropylcellulose) (HPC)) was 117 % of control. For the same molecule, the T/C (endpoint: median tumor weight (est.), dose: 50.0 mg/kg/injection, schedule: Q07DX005 (ip), vehicle: Klucel (hydroxypropylcellulose) (HPC)) was 57 % of control and the T/C (endpoint: median tumor weight (est.), dose: 100.0 mg/kg/injection, schedule: Q07DX005 (ip), vehicle: Klucel (hydroxypropylcellulose) (HPC)) was 162 % of control.
`CC(=O)c1c(O)c(C)c(O)c2c1OC1=CC(=O)C(C(C)=O)C(=O)C12C` (stereo not given) was tested, and the T/C (endpoint: median tumor weight (est.), dose: 12.5 mg/kg/injection, schedule: Q07DX004 (ip), vehicle: gum acacia) was 44 % of control, the T/C (endpoint: median tumor weight (est.), dose: 12.5 mg/kg/injection, schedule: Q07DX005 (ip), vehicle: gum acacia) was 95 % of control and the T/C (endpoint: median tumor weight (est.), dose: 25.0 mg/kg/injection, schedule: Q07DX004 (ip), vehicle: gum acacia) was 78 % of control. The T/C (endpoint: median tumor weight (est.), dose: 25.0 mg/kg/injection, schedule: Q07DX005 (ip), vehicle: gum acacia) was 120 % of control, the T/C (endpoint: median tumor weight (est.), dose: 50.0 mg/kg/injection, schedule: Q04DX005 (ip), vehicle: gum acacia) was 79 % of control and 97 % of control and the T/C (endpoint: median tumor weight (est.), dose: 50.0 mg/kg/injection, schedule: Q07DX004 (ip), vehicle: gum acacia) was 85 % of control. For the same molecule, the T/C (endpoint: median tumor weight (est.), dose: 50.0 mg/kg/injection, schedule: Q07DX005 (ip), vehicle: gum acacia) was 85 % of control, the T/C (endpoint: median tumor weight (est.), dose: 100.0 mg/kg/injection, schedule: Q07DX004 (ip), vehicle: gum acacia) was 114 % of control and the T/C (endpoint: median tumor weight (est.), dose: 100.0 mg/kg/injection, schedule: Q07DX005 (ip), vehicle: gum acacia) was 74 % of control. The T/C (endpoint: median tumor weight (est.), dose: 200.0 mg/kg/injection, schedule: Q07DX005 (ip), vehicle: gum acacia) was 102 % of control, the T/C (endpoint: median tumor weight (est.), dose: 400.0 mg/kg/injection, schedule: Q04DX005 (ip), vehicle: gum acacia) was 97 % of control and the T/C (endpoint: median tumor weight (est.), dose: 400.0 mg/kg/injection, schedule: Q07DX004 (ip), vehicle: gum acacia) was 42 % of control. The T/C (endpoint: median tumor weight (est.), dose: 400.0 mg/kg/injection, schedule: Q07DX005 (ip), vehicle: gum acacia) was 96 % of control.
In the case of `C[PH+](C)C.C[PH+](C)C.[Au]`, the T/C (endpoint: median tumor weight change, dose: 1.5 mg/kg/injection, schedule: Q01DX001 (ip), vehicle: saline) is reported as 112 % of control, the T/C (endpoint: median tumor weight change, dose: 3.0 mg/kg/injection, schedule: Q01DX001 (ip), vehicle: saline) is reported as 77 % of control and the T/C (endpoint: median tumor weight change, dose: 3.12 mg/kg/injection, schedule: Q01DX001 (ip), vehicle: saline) is reported as 95 % of control. The T/C (endpoint: median tumor weight change, dose: 12.5 mg/kg/injection, schedule: Q01DX001 (ip), vehicle: saline) was 60 % of control and 80 % of control.
For `O=CN(SSN(C=O)C1CCCCC1)C1CCCCC1`, the T/C [5] was 101 % of control, the T/C [6] was 123 % of control and the T/C [7] was 100 % of control.
For `CC(=O)Nc1ccc(C(=O)C=O)cc1`, the T/C [8] was 114 % of control, the T/C [5] was 117 % of control and the T/C [6] was 84 % of control. For the same molecule, the T/C [9] was 93 % of control and the T/C [7] was 80 % of control.
In the case of `O=c1nc(Oc2ccccc2)nc2ncccn12`, the T/C (endpoint: median tumor weight (est.), dose: 6.25 mg/kg/injection, schedule: Q07DX005 (ip), vehicle: saline with Tween-80) is reported as 88 % of control, the T/C [8] is reported as 110 % of control and the T/C [5] is reported as 100 % of control. The T/C [6] was 91 % of control and the T/C [9] was 114 % of control.
For `C/C=C\C(C)=C/C(C)C(=O)CC(O)CC1CC(=O)NC(=O)C1` (stereo not given), the T/C (endpoint: median tumor weight change, dose: 50.0 mg/kg/injection, schedule: Q01DX001 (ip), vehicle: saline with Tween-80) was 66 % of control, the T/C (endpoint: median tumor weight change, dose: 56.0 mg/kg/injection, schedule: Q01DX001 (ip), vehicle: DMSO) was 58 % of control and the T/C (endpoint: median tumor weight change, dose: 100.0 mg/kg/injection, schedule: Q01DX001 (ip), vehicle: saline with Tween-80) was 66 % of control. The T/C (endpoint: median tumor weight change, dose: 112.0 mg/kg/injection, schedule: Q01DX001 (ip), vehicle: DMSO) was 60 % of control, the T/C (endpoint: median tumor weight change, dose: 200.0 mg/kg/injection, schedule: Q01DX001 (ip), vehicle: saline with Tween-80) was 73 % of control and the T/C (endpoint: median tumor weight change, dose: 225.0 mg/kg/injection, schedule: Q01DX001 (ip), vehicle: DMSO) was 77 % of control. For the same molecule, the T/C (endpoint: median tumor weight change, dose: 400.0 mg/kg/injection, schedule: Q01DX001 (ip), vehicle: saline with Tween-80) was 98 % of control.
In the case of `O=C(Nc1ccccc1)c1c(O)[nH]c(=S)[nH]c1=O`, the T/C (endpoint: median tumor weight change, dose: 56.0 mg/kg/injection, schedule: Q01DX001 (ip), vehicle: saline with Tween-80) is reported as 61 % of control and the T/C (endpoint: median tumor weight change, dose: 112.0 mg/kg/injection, schedule: Q01DX001 (ip), vehicle: saline with Tween-80) is reported as 80 % of control.
In the case of `Cc1cc(NCCCCCCCCNc2cc(C)nc3cc(N(C)C)ccc23)c2ccc(N(C)C)cc2n1`, the T/C (endpoint: median tumor weight change, dose: 31.0 mg/kg/injection, schedule: Q01DX001 (ip), vehicle: distilled water + Tween-80) is reported as 35 % of control, the T/C (endpoint: median tumor weight change, dose: 62.5 mg/kg/injection, schedule: Q01DX001 (ip), vehicle: distilled water + Tween-80) is reported as 47 % of control and 54 % of control and the T/C (endpoint: median tumor weight change, dose: 125.0 mg/kg/injection, schedule: Q01DX001 (ip), vehicle: distilled water + Tween-80 + alcohol) is reported as 105 % of control. For the same molecule, the T/C (endpoint: median tumor weight change, dose: 250.0 mg/kg/injection, schedule: Q01DX001 (ip), vehicle: distilled water + Tween-80 + alcohol) was 104 % of control.
